{
  "source": "patent EP0449955B1",
  "about": "“SYNTHETIC HIV-LIKE PEPTIDES, THEIR COMPOSITIONS AND USES” (CLARITY TECHNOLOGIES INCORPORATED, priority 1988, dated 1996)",
  "test_system": "SIV/HIV-2 antibodies",
  "test": "EIA of HIV-2 gp32 peptide-protein conjugates against macaque serum pools",
  "format": "binding",
  "details": "peptide conjugated via C-terminus to BSA (SMCC), coated at 10 micrograms peptide/ml; 1:101 dilution of SIV+ macaque serum pool; Figure 5",
  "description": "The free peptides or peptide-protein conjugates of Figures 1-13 were initially screened for immunoreactivity by coating each well of polystyrene microtiter EIA plates (Costar, Cambridge, Massachusetts, U.S.A.) with 0.2 ml amounts of concentrations of 5-50 micrograms/ml peptide in Tris buffer, 10 mM, pH 8.0, at 4°C overnight. Peptides or peptide-protein conjugates showing immunoreactivity by EIA were then further diluted for coating to determine the minimal concentrations required that allowed maximal immunoreactivity with antibodies to HIV, and minimal nonspecific reactivity with normal sera. The EIA tests were performed as follows: The coating solution was removed from each well and the wells were blocked at 37°C for 30 minutes with a solution of 50 mM phosphate, 100 mM NaCl, pH 7.4, 1% BSA, 0.5% gelatin. The wells were then aspirated dry with a microtiter plate washer and washed 3 times with a solution of 50 mM phosphate, 100 mM NaCl, .05% Tween 20, (trademark) pH 7.4 (PBST). […] Reactions were stopped with 50 microliters of 4N H₂SO₄, and the color development was quantitated in a Multiscan plate reader at A₄₉₂. […] Most peptides and peptide conjugates were initially screened against a 1:101 dilution of pools of HIV positive or HIV negative sera, and the same serum pool was used to allow quantitative comparison of immunoreactivity of different free peptides or peptide-protein conjugates.\nThe peptides in Figures 1 and 5 were synthesized as described in Example 1 and conjugated to KLH or BSA as described in Example 2. These peptide-protein conjugates were coated to polystyrene microtiter plates all at a concentration 10 micrograms peptide/ml and evaluated for immunoreactivity as described in Example 3, using a 1:101 dilution of a pool of sera (HIV+/SIV+, respectively) containing antibodies to HIV-1 (Figure 1) or to HIV-2 (Figure 5), as well as pooled serum (HIV-/SIV-, respectively) containing no antibodies to HIV-1 or HIV-2. […]",
  "note": "“Also recorded” adds a separate entry of the source.",
  "data": [
    {"sequence": "ARLNSWGCAFRQVCHGC [2S25]", "values": [
      {"measurement": "immunoreactivity with SIV/HIV-2 antibodies", "value": "maximally immunoreactive; also recorded: Significant immunoreactivity; also recorded: best immunoreactivity"}
    ]}
  ]
}
